Target: T1, total muscarinic receptor
T1 construct: gene Chrm1
Type: biochemical, Rattus norvegicus
Conditions: control rats; striatal membranes; 1 nM [3H]QNB; Tris-HCl-EDTA pH 7.4; 22°C; one-site fit; unit not printed (concentrations in M); logarithmic value; EC50 stated to be same as IC50
Description: [3H]QNB displacement, filtration on total muscarinic receptor

SMILES: CN1[C@@H]2CC[C@H]1CC(OC(=O)C(CO)c1ccccc1)C2 (stereo partly shown) [atropine]
- Log (EC50): -7.076

Source: PMC2682793, “Enhanced muscarinic M1 receptor gene expression in the corpus striatum of streptozotocin-induced diabetic rats” (Journal of Biomedical Science, 2009)
